# From US20080138288A1, “COMBINATIONS FOR TREATMENT OF NEOVASCULATURE” (Washington University, priority 2006, published 2008)
# System: aortic vasa vasorum neovasculature
# Test: MRI signal enhancement of aortic vasa vasorum neovasculature in cholesterol-fed rabbits (Example 1, FIG. 1)
# Type: in vivo
# Conditions: weeks 2 to 8; atorvastatin in high-cholesterol chow, 44 mg/kg feed
# Method: Cholesterol-fed rabbits received αvβ3-targeted paramagnetic nanoparticles (NP) with (n=9) or without (n=9) fumagillin (30 μg/kg body weight) at weeks 0 and 4. A portion of the animals (n=4 per group) was treated with atorvastatin included in the high-cholesterol chow (44 mg/kg feed). Assessment of antiangiogenic response was evaluated at weeks 2, 4, 6 and 8 using αvβ3-targeted paramagnetic NP lacking the drug. MRI signal enhancement from the aortic vasa vasorum neovasculature was calculated from transverse black-blood MR images (1.5 T) collected before and 4 hours post NP injection (1 ml/kg body weight). The MRI enhancement observed at each timepoint was normalized with respect to the enhancement measured at week 0.
compound,measurement,value
CC(C)c1c(C(=O)Nc2ccccc2)c(-c2ccccc2)c(-c2ccc(F)cc2)n1CC[C@@H](O)C[C@@H](O)CC(=O)O [atorvastatin],"MRI enhancement in the thoracic aorta, normalized to week 0, time course",slow decrease in enhancement
